Test results from US20230159496A1, “COMPOUNDS AND METHODS FOR MODULATING SPLICING” (REMIX THERAPEUTICS INC., priority 2020, published 2023).
Structures can show the parent of a compound that is named as a salt. Where two headings read alike, the source gives them in different places.

Tests used:
Type in all cases: cell-based
Target C CJ mRNA = assay: Gene panel canonical junction qPCR assay, Target C; conditions: decrease in CJ mRNA levels, gene panel; read-out: Target C IC50
Description: (§1) The expression of a target mRNA was measured by detecting the formation of an exon-exon junction in the canonical transcript (CJ). A compound mediated exon-inclusion event was detected by observing an increase in formation of a new junction with an alternative exon (AJ). Real-time qPCR assays were used to detect these splicing switches and interrogate the potency of various compounds towards different target genes. A high-throughput real time quantitative PCR (RT-qPCR) assay was developed to measure these two isoforms of the mRNA (CJ and AJ) for an exemplary gene, HTT, together with a control housekeeping gene, GAPDH or GUSB or PPIA, used for normalization. Briefly, the A673 or K562 cell line was treated with various compounds described herein (e.g., compounds of Formula (I)). After treatment, the levels of the HTT mRNA targets were determined from each sample of cell lysate by cDNA synthesis followed by qPCR. The A673 cell line was cultured in DMEM with 10% FBS. Cells were diluted with full growth media and plated in a 96-well plate (15,000 cells in 100 ul media per well). The plate was incubated at 37° C. with 5% CO2 for 24 hours to allow cells to adhere. An 11-point 3-fold serial dilution of the compounds was made in DMSO then diluted in media in an intermediate plate. Compounds were transferred from the intermediate plate to the cell plate with the top dose at a final concentration of 10 uM in the well. Final DMSO concentration was kept at or below 0.25%. The cell plate was returned to the incubator at 37° C. with 5% CO2 for an additional 24 hours. The K562 cell line was cultured in IMDM with 10% FBS. For K562, cells were diluted with full growth media and plated in either a 96-well plate (50,000 cells in 50 uL media per well) or a 384-well plate (8,000-40,000 cells in 45 uL media per well). An 11-point 3-fold serial dilution of the compounds were made in DMSO then diluted in media in an intermediate plate. Compound was transferred from the intermediate plate to the cell plate with the top dose at a final concentration of 10 uM in the well. Final DMSO concentration was kept at or below 0.25%. Final volume was 100 uL for 96-well plate and 50 uL for 384-well plate. The cell plate was then placed in an incubator at 37° C. with 5% CO2 for 24 hours. The cells were then gently washed with 50 uL-100 uL cold PBS before proceeding to addition of lysis buffer. 30 uL-50 uL of room temperature lysis buffer with DNAse I (and optionally RNAsin) was added to each well. Cells were shaken/mixed thoroughly at room temperature for 5-10 minutes for lysis to take place and then 3 uL-5 uL of room temperature stop solution was added and wells were shaken/mixed again. After 2-5 minutes, the cell lysate plate was transferred to ice for RT-qPCR reaction setup. The lysates could also be frozen at −80° C. for later use. In some cases, a direct lysis buffer was used. An appropriate volume of 3× lysis buffer (10 mM Tris, 150 mM NaCl, 1.5%-2.5% Igepal and 0.1-1 U/uL RNAsin, pH 7.4) was directly added to either K562 or A673 cells in media and mixed by pipetting 3 times. The plates were then incubated at room temperature with shaking/rocking for 20-50 minutes to allow for lysis to take place. After this time, the cell lysate plate was transferred to ice to set up for the RT-qPCR reactions. The lysates could also be frozen at −80° C. for later use. To set up 10 uL RT-qPCR reactions, cell lysates were transferred to 384-well qPCR plates containing the master mix according to the table below. The plates were sealed, gently vortexed, and spun down before the run. The volumes were adjusted accordingly in some instances where the reaction was carried in 20 uL. The table below summarizes the components of the RT-qPCR reactions: The RT-qPCR reaction was performed using a QuantStudio (ThermoFisher) under the following fast cycling conditions. All samples and standards were analyzed at least in duplicate.

HTT CJ mRNA = assay: Gene panel canonical junction qPCR assay, HTT; conditions: decrease in CJ mRNA levels, gene panel; read-out: HTT IC50
Description: as §1

SMN2 CJ mRNA = assay: Gene panel canonical junction qPCR assay, SMN2; conditions: decrease in CJ mRNA levels, gene panel; read-out: SMN2 IC50
Description: as §1

HTT mRNA = assay: Splicing assay (RT-qPCR) monitoring HTT canonical junction (CJ) and alternative junction (AJ) mRNA isoforms; conditions: A673 or K562 cells, 24 h treatment, top dose 10 uM
Description: Compounds described herein were used to modulate RNA transcript abundance in cells. The expression of a target mRNA was measured by detecting the formation of an exon-exon junction in the canonical transcript (CJ). A compound mediated exon-inclusion event was detected by observing an increase in formation of a new junction with an alternative exon (AJ). Real-time qPCR assays were used to detect these splicing switches and interrogate the potency of various compounds towards different target genes. A high-throughput real time quantitative PCR (RT-qPCR) assay was developed to measure these two isoforms of the mRNA (CJ and AJ) for an exemplary gene, HTT, together with a control housekeeping gene, GAPDH or GUSB or PPIA, used for normalization. Briefly, the A673 or K562 cell line was treated with various compounds described herein (e.g., compounds of Formula (I)). After treatment, the levels of the HTT mRNA targets were determined from each sample of cell lysate by cDNA synthesis followed by qPCR.
• Cells-to-CT 1-step kit: ThermoFisher A25602, Cells-to-CT lysis reagent: ThermoFisher 4391851C, TaqMan™ Fast Virus 1-Step Master Mix: ThermoFisher 4444436 • GAPDH: VIC-PL, ThermoFisher 4326317E (Assay: Hs99999905_m1)—used for K562/suspension cell lines • GUSB: VIC-PL, ThermoFisher 4326320E (Assay: Hs99999908_m1)—used for K562/suspension cell lines • PPIA: VIC-PL, ThermoFisher 4326316E (Assay: Hs99999904_m1) — used for A673/adherent cell lines
The A673 cell line was cultured in DMEM with 10% FBS. Cells were diluted with full growth media and plated in a 96-well plate (15,000 cells in 100 ul media per well). The plate was incubated at 37° C. with 5% CO2 for 24 hours to allow cells to adhere. An 11-point 3-fold serial dilution of the compounds was made in DMSO then diluted in media in an intermediate plate. Compounds were transferred from the intermediate plate to the cell plate with the top dose at a final concentration of 10 uM in the well. Final DMSO concentration was kept at or below 0.25%. The cell plate was returned to the incubator at 37° C. with 5% CO2 for an additional 24 hours.
The K562 cell line was cultured in IMDM with 10% FBS. For K562, cells were diluted with full growth media and plated in either a 96-well plate (50,000 cells in 50 uL media per well) or a 384-well plate (8,000-40,000 cells in 45 uL media per well). An 11-point 3-fold serial dilution of the compounds were made in DMSO then diluted in media in an intermediate plate. Compound was transferred from the intermediate plate to the cell plate with the top dose at a final concentration of 10 uM in the well. Final DMSO concentration was kept at or below 0.25%. Final volume was 100 uL for 96-well plate and 50 uL for 384-well plate. The cell plate was then placed in an incubator at 37° C. with 5% CO2 for 24 hours.
The cells were then gently washed with 50 uL-100 uL cold PBS before proceeding to addition of lysis buffer. 30 uL-50 uL of room temperature lysis buffer with DNAse I (and optionally RNAsin) was added to each well. Cells were shaken/mixed thoroughly at room temperature for 5-10 minutes for lysis to take place and then 3 uL-5 uL of room temperature stop solution was added and wells were shaken/mixed again. After 2-5 minutes, the cell lysate plate was transferred to ice for RT-qPCR reaction setup. The lysates could also be frozen at −80° C. for later use.
In some cases, a direct lysis buffer was used. An appropriate volume of 3× lysis buffer (10 mM Tris, 150 mM NaCl, 1.5%-2.5% Igepal and 0.1-1 U/uL RNAsin, pH 7.4) was directly added to either K562 or A673 cells in media and mixed by pipetting 3 times. The plates were then incubated at room temperature with shaking/rocking for 20-50 minutes to allow for lysis to take place. After this time, the cell lysate plate was transferred to ice to set up for the RT-qPCR reactions. The lysates could also be frozen at −80° C. for later use. […]

[1] = decrease in CJ mRNA (50% response), read-out: HTT CJ AC50
[2] = increase in AJ mRNA (50% response), read-out: HTT AJ AC50

| IC50 (Target C CJ mRNA) | IC50 (HTT CJ mRNA) | IC50 (SMN2 CJ mRNA) | Structure (SMILES) | AC50 (HTT mRNA; [1]) | AC50 (HTT mRNA; [2]) |
| --- | --- | --- | --- | --- | --- |
| > 10 µM | > 10 µM | > 10 µM | CN1CCN(c2ccc3c(=O)n(-c4ccc5nn(C)cc5c4)cnc3c2)CC1 [Compound 152, 3-(2-methyl-2H-indazol-5-yl)-7-(4-methylpiperazin-1-yl)quinazolin-4(3H)-one] | > 10 µM | > 10 µM |
| > 10 µM | 1 to 10 µM | < 0.1 µM | Cc1cc(-c2ccc3c(=O)n(C4CCNCC4)cnc3c2F)cc2cn(C)nc12 [Compound 234, 7-(2,7-dimethyl-2H-indazol-5-yl)-8-fluoro-3-(piperidin-4-yl)quinazolin-4(3H)-one] | 1 to 10 µM | 1 to 10 µM |
|  | 0.1 to 1 µM | < 0.1 µM | Cc1cc(-c2ccc3c(=O)n(C4CCNCC4)cnc3c2)cc2cn(C)nc12 [Compound 174, 7-(2,7-dimethyl-2H-indazol-5-yl)-3-(piperidin-4-yl)quinazolin-4(3H)-one] | 0.1 to 1 µM | 0.1 to 1 µM |
| 0.1 to 1 µM | < 0.1 µM |  | Cc1cn2nc(-c3ccc4c(=O)n([C@H]5CCN[C@H](C)C5)ncc4c3)cc(C)c2n1 [Compound 273] | < 0.1 µM | 0.1 to 1 µM |
| 0.1 to 1 µM | 0.1 to 1 µM |  | CC[C@@H]1C[C@@H](n2ncc3cc(-c4cc(C)c5nc(C)cn5n4)ccc3c2=O)CCN1 [Compound 305, 6-{2,8-dimethylimidazo[1,2-b]pyridazin-6-yl}-2-[(2R,4S)-2-ethylpiperidin-4-yl]phthalazin-1-one] | 0.1 to 1 µM | 1 to 10 µM |
|  | > 10 µM | > 10 µM | Cn1cc2cc(-n3cnc4cc(NC5CCNCC5)ccc4c3=O)ccc2n1 [Compound 162] | > 10 µM | > 10 µM |
|  | 1 to 10 µM | 0.1 to 1 µM | Cc1cc(-c2ccc3c(=O)n(C4CCN(C)CC4)cnc3c2)cc2cn(C)nc12 [Compound 156] | 1 to 10 µM | 1 to 10 µM |

The next lines start with the compound.

| Structure (SMILES) | IC50 (Target C CJ mRNA) | IC50 (HTT CJ mRNA) | IC50 (SMN2 CJ mRNA) | AC50 (HTT mRNA; [1]) | AC50 (HTT mRNA; [2]) |
| --- | --- | --- | --- | --- | --- |
| Cc1cn2nc(-c3ccc4c(=O)n(C5CCOCC5)ncc4c3)cc(C)c2n1 [Compound 275] | > 10 µM | > 10 µM |  |  |  |
| Cc1cc(-c2ccc3nc(N4CCN(C)CC4)[nH]c(=O)c3c2)cc2cn(C)nc12 [Compound 165, 6-(2,7-dimethyl-2H-indazol-5-yl)-2-(4-methylpiperazin-1-yl)quinazolin-4(3H)-one] |  | > 10 µM | 0.1 to 1 µM | > 10 µM | > 10 µM |
| Cn1cc2cc(-n3cnc4cc(C5=CCNCC5)ccc4c3=O)ccc2n1 [Compound 158, 3-(2-methyl-2H-indazol-5-yl)-7-(1,2,3,6-tetrahydropyridin-4-yl)quinazolin-4(3H)-one] |  | > 10 µM | > 10 µM | > 10 µM | > 10 µM |
| Cc1cc(-c2ccc3c(=O)n(C4CC(C)(C)NC(C)(C)C4)cnc3c2)cc2cn(C)nc12 [Compound 157, 7-(2,7-dimethyl-2H-indazol-5-yl)-3-(2,2,6,6-tetramethylpiperidin-4-yl)quinazolin-4(3H)-one hydrochloride] |  | > 10 µM | 1 to 10 µM | > 10 µM | > 10 µM |
| CN1CC=C(c2ccc3c(=O)n(-c4ccc5nn(C)cc5c4)cnc3c2)CC1 [Compound 159, 7-(1-methyl-1,2,3,6-tetrahydropyridin-4-yl)-3-(2-methyl-2H-indazol-5-yl)quinazolin-4(3H)-one] |  | > 10 µM | > 10 µM | > 10 µM | > 10 µM |
| Cc1cc(-c2ccc3c(=O)n(C4CCN(C)CC4)cnc3n2)cc2cn(C)nc12 [Compound 173, 7-(2,7-dimethyl-2H-indazol-5-yl)-3-(1-methylpiperidin-4-yl)pyrido[2,3-d]pyrimidin-4(3H)-one] |  | > 10 µM | 1 to 10 µM | > 10 µM | > 10 µM |
| Cn1cc2cc(-n3cnc4cc(N5CCNCC5)ccc4c3=O)ccc2n1 [Compound 153, 3-(2-methyl-2H-indazol-5-yl)-7-(piperazin-1-yl)quinazolin-4(3H)-one] |  | > 10 µM | 1 to 10 µM | > 10 µM | > 10 µM |
